This note sets out measurements from patent US8980833B2, “Tubulysine derivatives” (priority 2007, dated 2015).

Type in all cases: cell-based
One assay concerns HT-29 (colon) cells. The assay is described as follows: MTS cell survival assay, HT-29 (colon). As to conditions: 48 hours incubation, read-out: IC50 cell line HT-29. As for the experimental part:
(§1) Seed 96-well plates at a concentration of 5000 cells/well in a volume of 100 μl with A2780 (ovarian), HT-29 (colon), MDA-MB-231 (breast), NCI-H1299 (non-small cell lung, MCF-7 (breast) cells or any other available cancer cell line. Incubate for 24 hours at 37° C.
(§2) Prepare a stock solution of Tubulysin derivative by dissolving at 10 mg/ml in methanol. Prepare dilutions of 1 mg/ml in methanol and 17 μg/ml (20 μM) in cell culture medium, and make serial 10-fold dilutions down to 2 pM in cell culture medium.
(§3) Add 100 μl of Tubulysin to triplicate wells for a final dose range of 1 pM to 10 μM. Reserve three wells for “untreated” cells and three wells of medium alone as a “blank”. Incubate plates at 37° C. for 48 hours.
(§4) Prepare MTS assay reagent by diluting CellTiter 96 AQueous One Solution (Promega) 5-fold into PBS/glucose (4.5 g/L). Aspirate cell culture medium. Aliquot 100 μl of MTS reagent to each well. Incubate at 37° C. for 1-2 hours depending on the cell line.
(§5) Shake the plates for 5 minutes and measure the absorbance at 485 nm using a plate reader (e.g. Tecan). Enter the raw data into an excel spreadsheet to obtain the % cell survival for each cell line. Graph dose (nM) vs. % cell survival and estimate IC50s from the graphs.
(§6) Use a 4-parameter logistic fit to obtain IC50 values: y=(a−d)/(1+(x/c)^b)+d • where • x=dose • y=% cell survival • a=lower asymptote • b=slope • c=IC50 • d=upper asymptote
(§7) Enter values for x and y. Estimate values for a, b, c, and d. Run the solver tool on the sum of squared errors cell. Minimize the sum of squared errors by varying parameters a through d. Obtain the IC50 (nM) from parameter c.

Another assay has as its system A2780 (ovarian) cells. The assay is described as follows: MTS cell survival assay, A2780 (ovarian). As to conditions: 48 hours incubation, read-out: IC50 cell line A2780. As for the experimental part:
as §1, §2, §3, §4, §5, §6, §7

In another assay the test system is MCF-7 (breast) cells. The assay is described as follows: MTS cell survival assay, MCF-7 (breast). As to conditions: read-out: IC50 cell line MCF-7. On the procedure:
as §1, §2, §3, §4, §5, §6, §7
Background: Tetrazolium assays rely on reduction of a dye to a coloured formazan, in cell work by metabolically active cells.

For assay [1], the system named is NCI-H1299 (non-small cell lung) cells. The assay is described as follows: MTS cell survival assay, NCI-H1299 (non-small cell lung). The settings on record: Homo sapiens, 48 hours incubation, read-out: IC50 cell line NCI-H1299. On the procedure: as §1, §2, §3, §4
Shake the plates for 5 minutes and measure the absorbance at 485 nm using a plate reader (e.g. Tecan). Enter the raw data into an excel spreadsheet to obtain the % cell survival for each cell line. Graph dose (nM) vs. % cell survival and estimate IC50s from the graphs. […]

The mark [2] stands for this setting: Homo sapiens, MCF7, 48 hours incubation.

Structures are written as SMILES. Read-outs that look alike come from different tables or passages of the source.

One may read the IC50 as the concentration at which inhibition is half-maximal.

As to `CC[C@H](C)C(NC(=O)C1CCCCN1C)C(=O)N(C)[C@H](C[C@@H](OC(C)=O)c1nc(C(=O)N[C@@H](Cc2ccc(OC)cc2)C[C@H](C)C(=O)O)cs1)C(C)C` (stereo partly shown), the IC50 in the assay with HT-29 (colon) cells (Homo sapiens) stood at 2 nM; in the assay on A2780 (ovarian) cells (Homo sapiens), 0.8 nM; in the assay on MCF-7 (breast) cells (setting [2]) it was 0.6 nM.
Consider `CC[C@H](C)C(NC(=O)C1CCCN1C)C(=O)N(C)[C@H](C[C@@H](OC(C)=O)c1nc(C(=O)N[C@@H](Cc2ccc(F)cc2)C[C@H](C)C(=O)O)cs1)C(C)C` (stereo partly shown), for which the IC50 with HT-29 (colon) cells (Homo sapiens) came out at 3.1 nM; in the assay on MCF-7 (breast) cells (setting [2]), 1.1 nM.
Take `CCCN(C(=O)C(NC(=O)C1CCCCN1C)[C@@H](C)CC)[C@H](C[C@@H](OC(C)=O)c1nc(C(=O)N[C@H](CCC(=O)O)Cc2ccc(F)cc2)cs1)C(C)C` (stereo partly shown): the figures for the IC50 with HT-29 (colon) cells (Homo sapiens) and in the assay with A2780 (ovarian) cells (Homo sapiens) were 0.49 nM and 0.3 nM, respectively.
For the compound `CCCN(C(=O)C(NC(=O)C1CCCCN1C)[C@@H](C)CC)[C@H](C[C@@H](OC(C)=O)c1nc(C(=O)N[C@@H](Cc2ccc(-c3ccccc3)cc2)C[C@H](C)C(=O)O)cs1)C(C)C` (stereo partly shown), the figures for the IC50 in the assay with HT-29 (colon) cells (Homo sapiens) and with MCF-7 (breast) cells (setting [2]) were 0.28 nM and 0.4 nM, respectively.
As to `CC[C@H](C)C(NC(=O)C1CCCCN1C)C(=O)N(C)[C@H](C[C@@H](OC(C)=O)c1nc(C(=O)N[C@@H](Cc2ccc(-c3ccccc3)cc2)C[C@H](C)C(=O)O)cs1)C(C)C` (stereo partly shown), the IC50 in the assay with HT-29 (colon) cells (Homo sapiens) was 2.3 nM; with A2780 (ovarian) cells (Homo sapiens) it was 1.4 nM.
In the case of `CCCCCCN(C(=O)C(NC(=O)C1CCCCN1C)[C@@H](C)CC)[C@H](C[C@@H](OC(C)=O)c1nc(C(=O)N[C@@H](Cc2ccc(OC)cc2)C[C@H](C)C(=O)O)cs1)C(C)C` (stereo partly shown), the IC50 with HT-29 (colon) cells (Homo sapiens) worked out at 0.43 nM.
`CCCCCN(C(=O)C(NC(=O)C1CCCCN1C)[C@@H](C)CC)[C@H](C[C@@H](OC(C)=O)c1nc(C(=O)N[C@@H](Cc2ccc(F)cc2)C[C@H](C)C(=O)O)cs1)C(C)C` (stereo partly shown): the IC50 in the assay on HT-29 (colon) cells (Homo sapiens) was 0.35 nM; in the assay on MCF-7 (breast) cells (setting [2]) it was 0.6 nM.
In the case of `CCCN(C(=O)C(NC(=O)C1CCCCN1C)[C@@H](C)CC)[C@H](C[C@@H](OC(C)=O)c1nc(C(=O)N[C@@H](Cc2ccc(F)cc2)C[C@H](C)C(=O)O)cs1)C(C)C` (stereo partly shown), the IC50 with HT-29 (colon) cells (Homo sapiens) came out at 0.48 nM; with A2780 (ovarian) cells (Homo sapiens), 0.3 nM; in assay [1], 0.52 nM; in the assay on MCF-7 (breast) cells (setting [2]), 0.4 nM.
Turning to `CC[C@H](C)C(NC(=O)C1CCCCN1C)C(=O)N(COCC(C)C)[C@H](C[C@@H](OC(C)=O)c1nc(C(=O)N[C@@H](Cc2ccc(F)cc2)C[C@H](C)C(=O)O)cs1)C(C)C` (stereo partly shown), the results for the IC50 in the assay on HT-29 (colon) cells (Homo sapiens), in the assay with A2780 (ovarian) cells (Homo sapiens) and with MCF-7 (breast) cells (setting [2]) were 3.5 nM, 0.9 nM and 1.1 nM, respectively.
As for `CC(=O)O[C@H](C[C@H](C(C)C)N(COC(=O)c1ccccc1)C(=O)C(NC(=O)C1CCCCN1C)C(C)C)c1nc(C(=O)N[C@H](CCC(=O)O)Cc2ccc(F)cc2)cs1` (stereo partly shown), the IC50 in the assay with HT-29 (colon) cells (Homo sapiens) was determined as 0.45 nM; in the assay on MCF-7 (breast) cells (setting [2]) it was 0.4 nM.
For `CC[C@H](C)C(NC(=O)C1CCCCN1C)C(=O)N(COC(=O)CC(C)C)[C@H](C[C@@H](OC(C)=O)c1nc(C(=O)N[C@@H](Cc2ccc(O)cc2)C[C@H](C)C(=O)O)cs1)C(C)C` (stereo partly shown), the IC50 in the assay with HT-29 (colon) cells amounted to 0.75 nM; with A2780 (ovarian) cells, 0.8 nM; in the assay with MCF-7 (breast) cells (48 hours incubation), 0.6 nM.
For `CC[C@H](C)C(NC(=O)C1CCCN1C)C(=O)N(C)[C@H](C[C@@H](OC(C)=O)c1nc(C(=O)N[C@@H](Cc2ccc(N(C)C)cc2)C[C@H](C)C(=O)O)cs1)C(C)C` (stereo partly shown), the IC50 was determined as 2.1 nM with HT-29 (colon) cells (Homo sapiens) and 0.7 nM with A2780 (ovarian) cells (Homo sapiens).
On to `CC[C@H](C)C(NC(=O)C1CCCCN1C)C(=O)N(CC)[C@H](C[C@@H](O)c1nc(C(=O)N[C@H](CCN)Cc2ccc(F)cc2)cs1)C(C)C` (stereo partly shown), for which the values for the IC50 with HT-29 (colon) cells (Homo sapiens) and in the assay on MCF-7 (breast) cells (setting [2]) were 23 nM and 15.2 nM, respectively.
Consider `CC[C@H](C)C(NC(=O)C1CCCCN1C)C(=O)N(C)[C@H](C[C@@H](OC(C)=O)c1nc(C(=O)N[C@@H](Cc2ccc(F)cc2)C[C@H](C)C(=O)O)cs1)C(C)C` (stereo partly shown), for which the IC50 is 3 nM in the assay with HT-29 (colon) cells (Homo sapiens), 0.8 nM with A2780 (ovarian) cells (Homo sapiens) and 1.93 nM in assay [1].
On to `CCCN(C(=O)C(NC(=O)C1CCCCN1C)[C@@H](C)CC)[C@H](CCc1nc(C(=O)N[C@H](CCC(=O)O)Cc2ccccc2)cs1)C(C)C` (stereo partly shown), for which the IC50 in the assay on HT-29 (colon) cells (Homo sapiens) is 3.1 nM; in the assay with A2780 (ovarian) cells (Homo sapiens), 1.1 nM.
As for `CCCN(C(=O)C(NC(=O)C1CCCCN1C)[C@@H](C)CC)[C@H](CCc1nc(C(=O)N[C@H](CCCO)Cc2ccccc2)cs1)C(C)C` (stereo partly shown), the concentration for half-maximal inhibition (IC50) was determined as 4.3 nM with HT-29 (colon) cells (Homo sapiens) and 1.6 nM with A2780 (ovarian) cells (Homo sapiens).
